Results reported in publication PMC7721897, “Metabolism and pharmacokinetics of a novel polyphenol fatty acid ester phloridzin docosahexaenoate in Balb/c female mice” (Scientific Reports, 2020).
Blank lines part the entries; values can stand above or below the compound they belong to.

Assays:
[1] = In vitro phase I metabolism with mouse hepatic microsomes and NADPH; format: in vitro ADME; settings: PZ-DHA 1.1 µM, 100 mM NADPH, 1 h, 37 °C
Procedure: Figure 2 PZ-DHA undergoes phase I metabolism in the presence of freshly prepared mouse liver microsomes. PZ-DHA (1.1 µM) was incubated with 100 mM NADPH in the presence of mouse liver microsome for 1 h at 37 °C. Metabolites from PZ-DHA (A) hydrolysis, (B) and (C) hydroxylation, and (D) epoxidation were identified.
Mouse hepatic microsomes were freshly isolated from the livers of male C57BL/6 mice, and the entire extraction procedure was carried out at 4 °C. Mouse livers were minced and homogenized in KCl/sucrose phosphate buffer (0.154 M KCl, 0.25 M sucrose in 50 mM potassium phosphate buffer (K2HPO4/KH2PO4) (PPB), pH 7.5). Cell/tissue debris was separated out by centrifuging homogenized livers at 12,000×g for 22 min at 4 °C. The supernatant was collected and centrifuged at 100,000×g for 70 min at 4 °C. The pellet was gently rinsed using 50 mM PPB and resuspended in glycerol/phosphate buffer (20% glycerol (v/v), 80% 0.1 M PPB pH 7.5). The protein concentration was determined using a Bradford assay (R^2 = 1.00), and microsomes were stored at − 80 °C.
Potential in vitro phase I and phase II metabolites of PZ-DHA were detected by incubating PZ-DHA in the presence of freshly-prepared mouse hepatic microsome preparations. Phase I metabolites were determined by incubating 1.1 µM PZ-DHA with 100 mM NADPH in the presence of mouse hepatic microsomes for 1 h at 37 °C. Phase II methylation, glucuronidation, and sulphation of PZ-DHA was determined by incubating 1.1 µM PZ-DHA with 1 mM SAM, 2 mM UDPGA, and 0.5 mM PAPS, respectively, in the presence of freshly prepared mouse hepatic microsome for 1 h at 37 °C (Supplementary information Tables S1–S4). To assess the efficiency of the metabolic process, controls (no PZ-DHA control, no mouse hepatic microsome control and no co-factor control) were incubated in parallel to the test. Reactions were terminated by adding a mixture of 4 mL ice-cold acetonitrile:acetone (80:20) containing 0.05 mg/mL quercetin as the internal standard. Proteins were precipitated by incubating the reaction mixture at 4 °C overnight and separated by centrifuging at 14,000 × g for 15 min at 4 °C. Supernatants were concentrated under nitrogen flush, filtered and PZ-DHA and/or PZ-DHA metabolites were identified using a UPLC-ESI–MS/MS system (Waters Limited, Mississauga, ON, Canada).
(§1) PZ-DHA and/or PZ-DHA metabolites in malignant/non-malignant epithelial cell lysates, in vitro microsome enzyme reaction mixtures, and mouse serum aliquots were determined using UPLC-ESI–MS/MS instrument (Waters Limited, Mississauga, ON, Canada). All mass spectroscopic analyses were performed using mass scan (full-scan, identification of unknowns) and single ion monitoring (SIM; quantification of PZ, DHA, PZ-DHA, and quercetin) modes of a Waters H-class UPLC separations module coupled with a Micromass Quattro micro API MS/MS system and MassLynx V4.0 control software. An Allure biphenyl column (100 mm × 2.1 mm, 1.8 μm, Restek Pure Chromatography, Bellefonte, PA, USA) and a flow rate of 0.3 mL/min were employed. ESI- mode with a capillary voltage of 3000 V and a nebulizer gas (N2) temperature of 375 °C were used. A volume of 2 µL sample was injected.

[2] = In vitro phase II metabolism with mouse hepatic microsomes and SAM, UDPGA or PAPS; format: in vitro ADME; settings: PZ-DHA 1.1 µM, SAM, 1 h, 37 °C
Procedure: Figure 3 PZ-DHA undergoes phase II metabolism in the presence of freshly prepared mouse liver microsomes. PZ-DHA (1.1 µM) was incubated with S-(5′-adenosyl)-L-methionine chloride dihydrochloride (1 mM), […] (2 mM) and alamethicin (25 µg/mL) and adenosine 3′-phosphate 5′-phosphosulfate lithium salt, hydrate (0.5 mM) in the presence of mouse liver microsomal enzymes (3 mg/mL) at 37 °C for 1 h. (A) Tri-methylated-PZ-DHA (4,4′,6′-tri-O-methyl-phloridzin docosahexaenoate) (MW = 788.88 g/mol), (B) phloridzin docosahexaenoate-4-O-glucuronide (MW = 923.02 g/mol) and phloridzin docosahexaenoate-4′-O-glucuronide (MW = 923.02 g/mol), and (C) sulfated-PZ-DHA (phloridzin docosahexaenoate-4,4′-di-O-sulphide) metabolite (MW = 906.20 g/mol) were identified.
Mouse hepatic microsomes were freshly isolated from the livers of male C57BL/6 mice, and the entire extraction procedure was carried out at 4 °C. Mouse livers were minced and homogenized in KCl/sucrose phosphate buffer (0.154 M KCl, 0.25 M sucrose in 50 mM potassium phosphate buffer (K2HPO4/KH2PO4) (PPB), pH 7.5). […] The protein concentration was determined using a Bradford assay (R^2 = 1.00), and microsomes were stored at − 80 °C.
Potential in vitro phase I and phase II metabolites of PZ-DHA were detected by incubating PZ-DHA in the presence of freshly-prepared mouse hepatic microsome preparations. Phase I metabolites were determined by incubating 1.1 µM PZ-DHA with 100 mM NADPH in the presence of mouse hepatic microsomes for 1 h at 37 °C. Phase II methylation, glucuronidation, and sulphation of PZ-DHA was determined by incubating 1.1 µM PZ-DHA with 1 mM SAM, 2 mM UDPGA, and 0.5 mM PAPS, respectively, in the presence of freshly prepared mouse hepatic microsome for 1 h at 37 °C (Supplementary information Tables S1–S4). […]
PZ-DHA and/or PZ-DHA metabolites in malignant/non-malignant epithelial cell lysates, in vitro microsome enzyme reaction mixtures, and mouse serum aliquots were determined using UPLC-ESI–MS/MS instrument (Waters Limited, Mississauga, ON, Canada). […]

[3] = Tissue distribution of PZ-DHA and metabolites after intraperitoneal injection; format: in vivo, Balb/c female mice; settings: PZ-DHA 100 mg/kg intraperitoneal
Procedure: Figure 5 PZ-DHA and metabolites were detected in various organs of PZ-DHA-treated Balb/c female mice. PZ-DHA (100 mg/kg) was administered by intraperitoneal injection to Balb/c female mice and liver, lungs, kidneys, spleen and brain were harvested. Organs were homogenized and PZ-DHA in (A) liver, kidneys, lungs, spleen, and brain was identified and quantified using a calibration curve. The abundance of (B) 4,4′,6′-tri-O-methyl-phloridzin docosahexaenoate in liver, kidneys, lungs, and serum) and (C) phloridzin docosahexaenoate-4,4′-di-O-sulphide in the liver was determined in PZ-DHA equivalence.
(§2) Pharmacokinetic parameters and in vivo generation of PZ-DHA metabolites were studied using Balb/c female mice. Mice were randomly divided into six groups (n = 4/group) and PZ-DHA (100 mg/kg) was administered by intraperitoneal injection. For each mouse, a single blood collection was performed by cardiac puncture at one of six different time points (t = 15, 30, 60, 90, 120, and 240 min). At the end of blood collection, mice were euthanized by cervical dislocation and organs (liver, lungs, kidneys, spleen, and brain) were harvested. Blood samples were allowed to clot by leaving undisturbed at room temperature for 1 h, and serum was separated by centrifuging at 2000×g for 10 min at 4 °C. The serum was carefully removed and stored on ice until further processing. Serum proteins were precipitated by incubating an aliquot of serum with a mixture of acetonitrile:acetone (80:20) containing 0.1 mg/mL quercetin (internal standard) at 4 °C overnight. The supernatant was separated by centrifuging at 14,000×g for 10 min at 4 °C. Excess solvent was evaporated using nitrogen flush and mixed with methanol and filtered. PZ-DHA-metabolites in the filtrate were identified using a UPLC-ESI–MS/MS (Waters Limited, Mississauga, ON, Canada). Organs were homogenized in PBS (1:5 w/v). Supernatants were collected by centrifugation at 14,000 × g for 15 min at 4 °C. Proteins were precipitated by incubating in acetonitrile:acetone (80:20) containing 0.1 mg/mL quercetin (internal standard) at 4 °C overnight. Supernatants were treated as explained above, and PZ-DHA and/or PZ-DHA-metabolites were identified.

[4] = tested on: mammary carcinoma cells and mammary epithelial cells; test: Cellular uptake assay, all cell lines together; format: cell-based, human and mouse; settings: all cell lines, 20 μM, 72 h
Procedure: Figure 1 Conjugation of PZ with DHA increases the cellular uptake and stability of PZ and DHA. The cells were treated with 20 μM of PZ, DHA or PZ-DHA and cultured for 72 h at 37 °C. Cells were harvested and washed thoroughly using cold PBS. Cells were lysed in cold acetone containing 0.05 mg/mL quercetin, and cell lysates were collected by centrifugation and analyzed by using UPLC-ESI-MS/MS. (A) mean % cellular uptake of PZ, DHA and PZ-DHA. (B) fold increase in intracellular PZ and DHA when conjugated. ANOVA multiple means statistical comparison method was performed and differences among means were compared using Tukey’s test; *p < 0.05. (MDA-MB-231 p = 0.008; MDA-MB-468 p = 0.01; 4T1 p = 0.02; MCF-7 p = 0.01; MCF-10A p = 0.0005).
Cells were seeded at a density of 3 × 10^5 cells (MDA-MB-231, MDA-MB-468, MCF-7, and MCF-10A) or 1 × 10^5 cells (4T1) /T-75 flask. The cells were cultured overnight to promote cell adhesion. Adherent cells were treated with a sub-cytotoxic concentration (20 μM) of PZ, DHA or PZ-DHA and cultured for 72 h at 37 °C. The supernatant was carefully removed, and cell monolayers were washed with cold PBS. Cells were harvested using TrypLE Express and washed thoroughly with cold PBS. The cell pellet was resuspended in 3 mL of cold acetone containing 0.05 mg/mL quercetin as the internal standard, and incubated overnight at 4 °C. Cell lysates were collected by centrifugation at 14,000×g for 15 min at 4 °C and samples were concentrated by evaporating acetone under a stream of nitrogen gas. Dry pellets were reconstituted in methanol and filtered. The sample was analyzed using a UPLC/ESI/MS system. The percentage cell uptake of the total dose was quantified using standard curves of PZ (R^2 = 0.99), DHA (R^2 = 0.98) or PZ-DHA (R^2 = 0.99) made in methanol.
as §1

[5] = Serum pharmacokinetics after intraperitoneal injection; format: in vivo, Balb/c female mice; settings: PZ-DHA 100 mg/kg intraperitoneal, serum
Procedure: Figure 4 Intraperitoneal administration of PZ-DHA results in absorption into the systemic circulation of Balb/c female mice. PZ-DHA (100 mg/kg) was administered by intraperitoneal injection to Balb/c female mice. Blood collection was performed and serum was separated. PZ-DHA was identified and quantified using a calibration curve (R^2 = 0.99) generated using a standard series of PZ-DHA concentrations made in mouse serum. PZ-DHA concentration was plotted against time. The elimination rate of PZ-DHA was determined using a semi-log curve of PZ-DHA concentration vs. time curve.
as §2
A calibration curve (R^2 = 0.99) generated using a standard series of PZ-DHA concentrations prepared in mouse serum (spiked with 0.1 mg/mL quercetin) was used for the quantification of PZ-DHA. The average PZ-DHA concentrations were plotted against time. The maximum serum concentration of serum (Cmax) and the time to reach Cmax (Tmax) were read directly from the graph. The linear trapezoidal method was used to calculate the area under the curve (AUC) from t = 0 to infinity, the biological half-life of PZ-DHA (t1/2), determined using the plotted curve in Graphpad Prism software (version 5; La Jolla, CA, USA). The clearance following IP administration was determined by non-compartmental analysis using the relationship CL/F = D/AUC. The elimination rate constant λ was determined by linear regression of the elimination phase of the semi-log transformed concentration versus time curve. The t1/2 was calculated using the formula 0.693/λ and the volume of distribution Vd/F from the formula Vd/F = CL/(F*λ).

[6] = tested on: mammary carcinoma cells, including MDA-MB-231 and 4T1; set-up: method as in PMID 31473253; settings: 20 µM for PZ-DHA; cited from earlier work
human plasma proteins = settings: ref Boulton et al.; cited from earlier work

phase I metabolite of PZ-DHA identified [1]: identified
Compound: CC/C=C\C/C=C\C/C=C\C/C=C\C/C=C\C/C=C\CCC(=O)OC[C@H]1O[C@@H](Oc2cc(O)cc(O)c2C(=O)CCc2ccc(O)c(O)c2)[C@H](O)[C@@H](O)[C@@H]1O [3-hydroxy-phloridzin docosahexaenoate]

phase I metabolite of PZ-DHA identified [1]: identified
Compound: O=C(CCc1ccc(O)c(O)c1)c1c(O)cc(O)cc1O[C@@H]1O[C@H](CO)[C@@H](O)[C@H](O)[C@H]1O [3-hydroxy-phloridzin]

phase II metabolite of PZ-DHA identified [2]: identified
time at which the metabolite reached the maximum concentration, post-injection ([3]; all organs except for serum): < 1 h
metabolite detection in tissue after PZ-DHA ([3]; liver, lungs, and kidneys): detected
metabolite concentration in serum throughout the experimental period ([3]; serum): remained constant
metabolite detection in tissue after PZ-DHA ([3]; spleen or brain): not found
Compound: CC/C=C\C/C=C\C/C=C\C/C=C\C/C=C\C/C=C\CCC(=O)OC[C@H]1O[C@@H](Oc2cc(OC)cc(OC)c2C(=O)CCc2ccc(OC)cc2)[C@H](O)[C@@H](O)[C@@H]1O [4,4′,6′-tri-O-methyl-phloridzin docosahexaenoate]

cellular uptake (as a % of the dose), in words [4]: very low
phase I metabolite of PZ-DHA identified [1]: identified
phase I metabolite in serum after PZ-DHA [5]: detection
Compound: CC/C=C\C/C=C\C/C=C\C/C=C\C/C=C\C/C=C\CCC(=O)O [DHA, docosahexaenoic acid, reference compound]
migration and invasion of mammary carcinoma cells [6]: to a lesser extent than PZ-DHA

cellular uptake (as a % of the dose), in words [4]: very low
phase I metabolite of PZ-DHA identified [1]: identified
phase I metabolite in serum after PZ-DHA [5]: detection
Compound: O=C(CCc1ccc(O)cc1)c1c(O)cc(O)cc1O[C@@H]1O[C@H](CO)[C@@H](O)[C@H](O)[C@H]1O [PZ, phloridzin]
migration and invasion of mammary carcinoma cells [6]: to a lesser extent than PZ-DHA

phase II metabolite of PZ-DHA identified [2]: identified
Compound: CC/C=C\C/C=C\C/C=C\C/C=C\C/C=C\C/C=C\CCC(=O)OC[C@H]1O[C@@H](Oc2cc(O)cc(O)c2C(=O)CCc2ccc(O[C@@H]3O[C@H](C(=O)O)[C@@H](O)[C@H](O)[C@H]3O)cc2)[C@H](O)[C@@H](O)[C@@H]1O [phloridzin docosahexaenoate-4-O-glucuronide]

phase II metabolite of PZ-DHA identified [2]: identified
Compound: CC/C=C\C/C=C\C/C=C\C/C=C\C/C=C\C/C=C\CCC(=O)OC[C@H]1O[C@@H](Oc2cc(O[C@@H]3O[C@H](C(=O)O)[C@@H](O)[C@H](O)[C@H]3O)cc(O)c2C(=O)CCc2ccc(O)cc2)[C@H](O)[C@@H](O)[C@@H]1O [phloridzin docosahexaenoate-4′-O-glucuronide]

Compound: O=c1c(O)c(-c2ccc(O)c(O)c2)oc2cc(O)cc(O)c12 [quercetin]
bound to human plasma proteins (human plasma proteins): 99.1%
freely available in the plasma (human plasma proteins): 0.9%

phase I metabolite of PZ-DHA identified [1]: identified
Compound: tri-epoxy-phloridzin docosahexaenoate
